This passage reports inhibition and residual activity results from ChEMBL document CHEMBL5649166, “RIP3 induces apoptosis independent of pronecrotic kinase activity” (Mol Cell, 2014).

Active and inactive are the calls of the source. The calls are words filed in the database; no cut-off is given here.

For test [1], the target named is High affinity nerve growth factor receptor (Homo sapiens) (UniProt P04629). As to the kind of experiment: Inhibition of human TRKA using poly[Glu:Tyr] (4:1) as substrate at 1 uM in presence of 32P-ATP by Hotspot assay relative to control.
For test [2], the target named is CDK1/Cyclin A (Homo sapiens) (UniProt P06493+P20248). In words: Inhibition of human CDK1/cyclin A using RB Protein as substrate at 1 uM in presence of 32P-ATP by Hotspot assay relative to control; values are per cent of control.
The target of test [3] is T1, Activin receptor type-1B (Homo sapiens) (UniProt P36896).
T1 sequence (whole entry): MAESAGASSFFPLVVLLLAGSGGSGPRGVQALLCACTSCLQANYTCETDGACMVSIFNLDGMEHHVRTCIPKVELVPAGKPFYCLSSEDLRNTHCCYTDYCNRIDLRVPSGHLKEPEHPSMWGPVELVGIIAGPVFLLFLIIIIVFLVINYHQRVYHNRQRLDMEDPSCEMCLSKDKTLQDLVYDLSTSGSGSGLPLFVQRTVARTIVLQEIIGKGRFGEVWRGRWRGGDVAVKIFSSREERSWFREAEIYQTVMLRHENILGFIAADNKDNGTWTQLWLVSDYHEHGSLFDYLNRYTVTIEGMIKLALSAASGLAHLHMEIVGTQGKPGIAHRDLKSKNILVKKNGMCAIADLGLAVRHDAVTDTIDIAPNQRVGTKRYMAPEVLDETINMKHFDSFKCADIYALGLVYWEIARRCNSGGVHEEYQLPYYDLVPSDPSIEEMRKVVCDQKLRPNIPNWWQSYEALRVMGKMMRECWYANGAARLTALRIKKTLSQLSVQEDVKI
In words: Residual activity of human ALK4/ACVR1B using casein as substrate at 1 uM in presence of 32P-ATP by Hotspot assay relative to control.

The target of test [4] is Cyclin-dependent kinase 1/cyclin B1 (Homo sapiens) (UniProt P06493+P14635). As to the kind of experiment: Inhibition of human CDK1/cyclin B using RB Protein as substrate at 1 uM in presence of 32P-ATP by Hotspot assay relative to control; values are per cent of control.
The target of test [5] is Misshapen-like kinase 1 (Homo sapiens) (UniProt Q8N4C8). In words: Residual activity of human MINK/MINK1 using myelin basic protein as substrate at 1 uM in presence of 32P-ATP by Hotspot assay relative to control.
For test [6], the target named is Ribosomal protein S6 kinase alpha-5 (Homo sapiens) (UniProt O75582). As to the kind of experiment: Inhibition of human MSK1/RPS6KA5 using GRPRTSSFAEG as substrate at 1 uM in presence of 32P-ATP by Hotspot assay relative to control; values are per cent of control.
In test [7] the target is Receptor tyrosine-protein kinase erbB-4 (Homo sapiens) (UniProt Q15303). In words: Inhibition of human ERBB4/HER4 using poly[Glu:Tyr] (4:1) as substrate at 1 uM in presence of 32P-ATP by Hotspot assay relative to control; values are per cent of control.
In test [8] the test system is BMDM. As to the kind of experiment: Inhibition of TNF-alpha induced necroptosis in mouse BMDM cells assessed as increase in cell viability at 0.04 to 1 uM incubated for 18 hrs in presence of zVAD and BV6 by Cell Titer-Glo luminescent cell viability assay. In kind it is functional, cell-based. The settings on record: dose 0.04-1 µM. In general terms: Cellular ATP, detected with luciferase, serves as a proxy for viable cell number.

The target of test [9] is T2, Tyrosine-protein kinase ZAP-70 (Homo sapiens) (UniProt P43403).
T2 sequence (whole entry): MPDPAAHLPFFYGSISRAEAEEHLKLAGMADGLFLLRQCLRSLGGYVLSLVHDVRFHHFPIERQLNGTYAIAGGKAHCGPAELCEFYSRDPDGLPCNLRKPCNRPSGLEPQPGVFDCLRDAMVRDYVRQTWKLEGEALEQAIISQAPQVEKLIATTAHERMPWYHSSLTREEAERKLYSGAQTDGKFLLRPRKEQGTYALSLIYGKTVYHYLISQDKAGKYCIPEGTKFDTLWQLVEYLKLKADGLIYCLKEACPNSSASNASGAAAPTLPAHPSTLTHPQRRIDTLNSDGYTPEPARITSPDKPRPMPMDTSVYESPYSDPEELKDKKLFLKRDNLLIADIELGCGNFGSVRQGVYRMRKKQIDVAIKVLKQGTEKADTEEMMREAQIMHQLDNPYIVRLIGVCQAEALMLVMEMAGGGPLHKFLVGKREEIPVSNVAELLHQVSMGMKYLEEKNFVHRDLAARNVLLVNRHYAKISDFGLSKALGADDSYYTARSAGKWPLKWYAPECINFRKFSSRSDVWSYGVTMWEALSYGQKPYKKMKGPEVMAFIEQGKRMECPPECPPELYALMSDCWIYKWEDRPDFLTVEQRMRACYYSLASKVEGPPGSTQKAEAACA
In words: Inhibition of human ZAP70 using poly[Glu:Tyr] (4:1) as substrate at 1 uM in presence of 32P-ATP by Hotspot assay relative to control; values are per cent of control.

Test [10] addresses Tyrosine-protein kinase CSK (Homo sapiens) (UniProt P41240). As to the kind of experiment: Inhibition of human CSK using poly[Glu:Tyr] (4:1) as substrate at 1 uM in presence of 32P-ATP by Hotspot assay relative to control; values are per cent of control.
Test [11] deals with Calcium/calmodulin-dependent protein kinase type II subunit delta (Homo sapiens) (UniProt Q13557). In words: Inhibition of human CAMK2d using KKLNRTLSFAEPG as substrate at 1 uM in presence of 32P-ATP by Hotspot assay relative to control; values are per cent of control.
For test [12], the target named is Insulin receptor (Homo sapiens) (UniProt P06213). In words: Inhibition of human IR using poly[Glu:Tyr] (4:1) as substrate at 1 uM in presence of 32P-ATP by Hotspot assay relative to control; values are per cent of control.

Sequence of Calcium/calmodulin-dependent protein kinase type II subunit delta (Homo sapiens) (Q13557 whole entry): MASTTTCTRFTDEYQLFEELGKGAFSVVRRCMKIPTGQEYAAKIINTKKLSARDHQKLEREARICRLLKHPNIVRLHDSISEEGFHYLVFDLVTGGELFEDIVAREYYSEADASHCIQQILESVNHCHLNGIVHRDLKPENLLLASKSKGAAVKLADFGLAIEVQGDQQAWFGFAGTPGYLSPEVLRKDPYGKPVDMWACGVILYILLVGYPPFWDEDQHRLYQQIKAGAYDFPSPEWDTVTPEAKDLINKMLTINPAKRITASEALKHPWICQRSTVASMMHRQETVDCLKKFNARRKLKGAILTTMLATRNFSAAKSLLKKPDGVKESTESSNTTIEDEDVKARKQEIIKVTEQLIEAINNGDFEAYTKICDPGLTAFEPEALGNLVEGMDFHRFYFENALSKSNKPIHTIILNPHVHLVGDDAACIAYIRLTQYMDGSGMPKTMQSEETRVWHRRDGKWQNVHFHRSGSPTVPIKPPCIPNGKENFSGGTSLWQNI
Sequence of Ribosomal protein S6 kinase alpha-5 (Homo sapiens) (O75582 whole entry, looked up): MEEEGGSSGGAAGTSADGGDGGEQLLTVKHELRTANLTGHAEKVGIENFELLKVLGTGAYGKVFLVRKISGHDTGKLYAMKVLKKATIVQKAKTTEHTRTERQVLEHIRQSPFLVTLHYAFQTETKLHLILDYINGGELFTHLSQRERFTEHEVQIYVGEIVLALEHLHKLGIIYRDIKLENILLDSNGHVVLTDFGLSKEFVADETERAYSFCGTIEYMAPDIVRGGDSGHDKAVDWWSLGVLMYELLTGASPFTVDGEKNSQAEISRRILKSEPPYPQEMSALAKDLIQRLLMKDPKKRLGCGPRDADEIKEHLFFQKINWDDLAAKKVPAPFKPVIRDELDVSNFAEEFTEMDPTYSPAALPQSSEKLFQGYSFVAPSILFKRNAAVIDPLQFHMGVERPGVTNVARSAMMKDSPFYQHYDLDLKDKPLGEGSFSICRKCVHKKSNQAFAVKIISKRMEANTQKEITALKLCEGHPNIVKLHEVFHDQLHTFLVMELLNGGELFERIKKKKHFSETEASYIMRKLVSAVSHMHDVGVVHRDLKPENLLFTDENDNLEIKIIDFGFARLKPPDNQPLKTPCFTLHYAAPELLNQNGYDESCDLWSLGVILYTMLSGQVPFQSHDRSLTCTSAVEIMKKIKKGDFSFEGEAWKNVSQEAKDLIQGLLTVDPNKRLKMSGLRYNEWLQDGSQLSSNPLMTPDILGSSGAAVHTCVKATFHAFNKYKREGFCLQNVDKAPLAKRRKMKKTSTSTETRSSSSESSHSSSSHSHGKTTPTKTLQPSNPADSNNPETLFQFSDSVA
Sequence of Cyclin-dependent kinase 1/cyclin B1 (Homo sapiens) (P06493 whole entry, looked up): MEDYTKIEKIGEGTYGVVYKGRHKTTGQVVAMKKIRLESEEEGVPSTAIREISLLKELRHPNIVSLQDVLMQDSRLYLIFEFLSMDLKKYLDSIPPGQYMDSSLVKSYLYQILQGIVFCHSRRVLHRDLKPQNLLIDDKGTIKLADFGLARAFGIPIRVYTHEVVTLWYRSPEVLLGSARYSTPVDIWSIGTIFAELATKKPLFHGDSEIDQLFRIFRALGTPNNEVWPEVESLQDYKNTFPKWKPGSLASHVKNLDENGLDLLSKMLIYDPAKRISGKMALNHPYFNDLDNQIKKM
Sequence of Cyclin-dependent kinase 1/cyclin B1 (Homo sapiens) (P14635 whole entry, looked up): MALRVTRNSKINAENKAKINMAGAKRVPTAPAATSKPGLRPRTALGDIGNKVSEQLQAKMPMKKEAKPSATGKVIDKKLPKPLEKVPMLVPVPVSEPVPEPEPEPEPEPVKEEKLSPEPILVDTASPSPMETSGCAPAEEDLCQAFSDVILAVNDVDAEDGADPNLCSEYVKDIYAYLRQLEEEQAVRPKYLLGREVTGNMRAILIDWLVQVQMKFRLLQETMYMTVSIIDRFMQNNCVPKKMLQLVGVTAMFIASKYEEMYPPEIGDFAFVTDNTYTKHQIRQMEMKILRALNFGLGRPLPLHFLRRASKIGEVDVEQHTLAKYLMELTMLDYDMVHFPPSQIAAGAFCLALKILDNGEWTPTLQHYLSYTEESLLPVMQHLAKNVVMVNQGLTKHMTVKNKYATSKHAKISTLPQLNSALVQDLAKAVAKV
Sequence of CDK1/Cyclin A (Homo sapiens) (P06493 whole entry, looked up): as the sequence (P06493 whole entry, looked up) above
Sequence of CDK1/Cyclin A (Homo sapiens) (P20248 whole entry, looked up): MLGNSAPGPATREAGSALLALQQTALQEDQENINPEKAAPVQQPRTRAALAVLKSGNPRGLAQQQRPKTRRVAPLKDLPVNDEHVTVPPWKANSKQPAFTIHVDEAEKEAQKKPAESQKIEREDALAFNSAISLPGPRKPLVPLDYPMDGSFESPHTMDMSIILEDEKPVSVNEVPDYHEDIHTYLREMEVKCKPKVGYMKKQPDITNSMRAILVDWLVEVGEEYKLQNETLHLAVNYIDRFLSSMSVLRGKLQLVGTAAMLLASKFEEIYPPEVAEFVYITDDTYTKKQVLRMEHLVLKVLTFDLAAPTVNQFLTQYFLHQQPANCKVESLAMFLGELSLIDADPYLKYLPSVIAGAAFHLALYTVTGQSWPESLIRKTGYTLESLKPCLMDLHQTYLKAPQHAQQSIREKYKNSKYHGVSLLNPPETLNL
Sequence of Receptor tyrosine-protein kinase erbB-4 (Homo sapiens) (Q15303 whole entry): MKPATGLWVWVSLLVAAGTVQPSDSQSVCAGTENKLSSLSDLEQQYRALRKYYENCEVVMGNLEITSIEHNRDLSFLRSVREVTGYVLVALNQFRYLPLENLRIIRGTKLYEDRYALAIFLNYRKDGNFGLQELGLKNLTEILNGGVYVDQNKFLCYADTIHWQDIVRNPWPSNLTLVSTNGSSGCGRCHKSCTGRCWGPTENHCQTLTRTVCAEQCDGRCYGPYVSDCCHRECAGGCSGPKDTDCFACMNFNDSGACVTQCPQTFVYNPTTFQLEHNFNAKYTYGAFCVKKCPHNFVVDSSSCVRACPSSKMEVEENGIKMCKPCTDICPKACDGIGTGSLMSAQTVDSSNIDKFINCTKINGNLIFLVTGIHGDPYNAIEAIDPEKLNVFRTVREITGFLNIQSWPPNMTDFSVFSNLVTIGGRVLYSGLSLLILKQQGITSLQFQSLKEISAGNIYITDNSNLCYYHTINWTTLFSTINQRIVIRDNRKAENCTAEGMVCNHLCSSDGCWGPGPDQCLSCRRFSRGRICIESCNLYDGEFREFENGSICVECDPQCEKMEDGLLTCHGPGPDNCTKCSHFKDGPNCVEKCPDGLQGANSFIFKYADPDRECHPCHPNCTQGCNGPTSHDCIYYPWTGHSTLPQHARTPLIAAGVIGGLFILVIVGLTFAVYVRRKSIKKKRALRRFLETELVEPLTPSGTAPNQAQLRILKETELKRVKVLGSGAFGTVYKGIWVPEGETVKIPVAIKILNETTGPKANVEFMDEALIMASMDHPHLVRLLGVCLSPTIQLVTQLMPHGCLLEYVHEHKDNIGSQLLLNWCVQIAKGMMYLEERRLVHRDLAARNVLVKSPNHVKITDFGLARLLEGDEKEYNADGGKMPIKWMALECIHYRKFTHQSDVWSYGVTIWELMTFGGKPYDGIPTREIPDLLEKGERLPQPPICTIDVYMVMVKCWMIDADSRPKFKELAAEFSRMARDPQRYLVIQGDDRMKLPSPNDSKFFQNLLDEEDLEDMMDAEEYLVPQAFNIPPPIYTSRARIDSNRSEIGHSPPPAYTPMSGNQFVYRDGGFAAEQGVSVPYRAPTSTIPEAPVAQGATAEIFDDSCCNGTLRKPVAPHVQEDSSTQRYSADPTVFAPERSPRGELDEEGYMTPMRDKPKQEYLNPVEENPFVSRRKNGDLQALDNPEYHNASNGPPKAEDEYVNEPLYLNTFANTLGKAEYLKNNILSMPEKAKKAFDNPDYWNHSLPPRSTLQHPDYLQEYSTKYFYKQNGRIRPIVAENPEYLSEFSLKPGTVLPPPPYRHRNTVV
Sequence of Tyrosine-protein kinase CSK (Homo sapiens) (P41240 2-450 limits assumed): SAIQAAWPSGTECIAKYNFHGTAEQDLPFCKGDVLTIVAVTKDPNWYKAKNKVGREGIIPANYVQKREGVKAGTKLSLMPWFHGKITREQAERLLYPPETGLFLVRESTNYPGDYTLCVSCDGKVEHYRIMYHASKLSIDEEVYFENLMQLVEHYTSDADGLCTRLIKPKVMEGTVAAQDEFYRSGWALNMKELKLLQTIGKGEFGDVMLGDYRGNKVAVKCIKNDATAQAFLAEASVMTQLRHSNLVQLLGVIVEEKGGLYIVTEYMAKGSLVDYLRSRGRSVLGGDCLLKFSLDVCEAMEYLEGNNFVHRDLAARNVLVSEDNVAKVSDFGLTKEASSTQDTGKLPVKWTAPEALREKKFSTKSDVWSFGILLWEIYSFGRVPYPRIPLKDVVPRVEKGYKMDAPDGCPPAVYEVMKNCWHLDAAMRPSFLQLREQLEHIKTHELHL

By inhibition is commonly meant the change of the read-out against control, counted positive when it falls. As a reminder, the residual activity is the signal under treatment as a percentage of the control signal. Regarding `CC(C)S(=O)(=O)c1ccc2nccc(Nc3ccc4scnc4c3)c2c1`, the inhibition in test [1] was determined as 89.3%. The residual activity in [2] was found to be 88.6%; in test [3], 100%; in test [4], 101%; in test [5], 94.6%; in test [6], 97.9%; in test [7], 89.3%. Further, the residual activity in test [9] was determined as 102%; in test [10], 58.8%; in [11] it was 98.1%; in test [12], 90.4%. In addition, the inhibition entry in test [8] is “Active”.
On to `CNC(=O)c1ccc2c(c1)ncn2-c1ccc(CC(=O)OC(C)(C)C)cc1`, for which, in test [1], the inhibition is 79.5%. For the same molecule, the residual activity in test [2] stood at 94.5%; in test [3], 93.9%; in test [4], 98.9%; in [5], 91.8%; in test [6], 89.4%; in test [7], 93.8%. The residual activity was 102% in [9], 78.6% in test [10], 97.3% in test [11] and 90% in [12]. The inhibition entry in test [8] is “inactive”.
`Cc1cc(-c2cnc(N)c3c(-c4ccc5scnc5c4)csc23)n(C)n1`: the inhibition in [1] was 84.7%. In addition, the residual activity in test [2] was found to be 98.9%; in test [3], 96.8%; in [4], 95%; in test [5], 19.5%; in test [6] it was 97.4%; in test [7], 98.4%. Also, the residual activity in test [9] was found to be 89.8%; in test [10], 69.5%; in test [11], 104%; in test [12], 101%. In [8], the inhibition result was “Active”.
